Source: BigSolDB 2.1

CC(=O)Nc1ccccc1[N+](=O)[O-]
solubility (mole fraction)
Details | 278.15 K | 283.15 K | 288.15 K | 293.15 K | 298.15 K | 303.15 K | 308.15 K | 313.15 K | 318.15 K | 323.15 K
in 1,4-dioxane | – | – | 0.13 | 0.147 | 0.165 | 0.186 | 0.211 | 0.244 | 0.284 | 0.343
in DMF | 0.167 | 0.178 | 0.192 | 0.213 | 0.238 | 0.266 | 0.295 | 0.327 | 0.373 | 0.426
in NMP | 0.195 | 0.215 | 0.239 | 0.268 | 0.299 | 0.33 | 0.367 | 0.404 | 0.445 | 0.491
in acetonitrile | 0.0156 | 0.0176 | 0.021 | 0.0248 | 0.0302 | 0.0387 | 0.0511 | 0.0675 | 0.0932 | 0.124
in cyclohexane | – | 0.00106 | 0.00133 | 0.00167 | 0.00216 | 0.00275 | 0.00357 | 0.00474 | 0.00634 | 0.0084
in ethanol | 0.0143 | 0.0163 | 0.0188 | 0.0226 | 0.0276 | 0.0323 | 0.0382 | 0.0447 | 0.0516 | 0.0615
in ethyl acetate | 0.0478 | 0.0545 | 0.0662 | 0.079 | 0.094 | 0.112 | 0.135 | 0.163 | 0.21 | 0.263
in ethylene glycol | 0.00464 | 0.00517 | 0.00599 | 0.00714 | 0.00855 | 0.0103 | 0.0126 | 0.0155 | 0.0187 | 0.0224
in isobutanol | 0.00896 | 0.00984 | 0.0115 | 0.0134 | 0.0162 | 0.0202 | 0.0246 | 0.0302 | 0.0374 | 0.0483
in isopropanol | 0.00743 | 0.00851 | 0.00991 | 0.0121 | 0.0151 | 0.0184 | 0.0227 | 0.0279 | 0.036 | 0.0468
in methanol | 0.0181 | 0.021 | 0.0248 | 0.0289 | 0.0331 | 0.0394 | 0.0463 | 0.0558 | 0.0703 | 0.0926
in n-butanol | 0.00975 | 0.011 | 0.0127 | 0.016 | 0.0196 | 0.0232 | 0.028 | 0.0341 | 0.0422 | 0.0529
in n-heptanol | 0.00627 | 0.00721 | 0.00829 | 0.0105 | 0.0129 | 0.0163 | 0.0209 | 0.0261 | 0.0337 | 0.042
in n-propanol | 0.0129 | 0.0144 | 0.0167 | 0.0204 | 0.0245 | 0.0285 | 0.0331 | 0.0393 | 0.0468 | 0.0578
in water | 9.9e-05 | 0.000128 | 0.00016 | 0.000201 | 0.000249 | 0.00032 | 0.000412 | 0.000521 | 0.000662 | 0.000824
